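Grown in 96-well plates, cells were treated for 48 hours with each compound at five concentrations. Insufficient inhibition: endpoint recorded as highest concentration tested. TGI is the concentration that stops growth completely.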
Key:
Experiment in all cases: NCI anticancer screen, dose series, 48 h
COLO 205 colon = system: COLO 205 colon
CAKI-1 renal = system: CAKI-1 renal
OVCAR-5 ovarian = system: OVCAR-5 ovarian
RPMI-8226 leukemia = system: RPMI-8226 leukemia
UACC-257 melanoma = system: UACC-257 melanoma
K-562 leukemia = system: K-562 leukemia
A498 renal = system: A498 renal
HCT-15 colon = system: HCT-15 colon
SF-539 CNS = system: SF-539 CNS
U251 CNS = system: U251 CNS
RXF 393 renal = system: RXF 393 renal
HOP-62 NSCLC = system: HOP-62 NSCLC
SR leukemia = system: SR leukemia
NCI-H226 lung = system: NCI-H226 lung
SNB-78 CNS = system: SNB-78 CNS
SNB-19 CNS = system: SNB-19 CNS
HCC-2998 colon = system: HCC-2998 colon
TK-10 renal = system: TK-10 renal
SK-MEL-5 melanoma = system: SK-MEL-5 melanoma
LOX IMVI melanoma = system: LOX IMVI melanoma
SF-295 CNS = system: SF-295 CNS
UACC-62 melanoma = system: UACC-62 melanoma
SK-MEL-28 melanoma = system: SK-MEL-28 melanoma
HOP-18 NSCLC = system: HOP-18 NSCLC
OVCAR-3 ovarian = system: OVCAR-3 ovarian
KM12 colon = system: KM12 colon
DMS 273 small cell lung = system: DMS 273 small cell lung
OVCAR-4 ovarian = system: OVCAR-4 ovarian
A549 NSCLC = system: A549 NSCLC
IGROV1 ovarian = system: IGROV1 ovarian
SW-620 colon = system: SW-620 colon
NCI-H522 lung = system: NCI-H522 lung
HOP-92 NSCLC = system: HOP-92 NSCLC
HL-60(TB) leukemia = system: HL-60(TB) leukemia
786-0 renal = system: 786-0 renal
UO-31 renal = system: UO-31 renal
NCI-H460 lung = system: NCI-H460 lung
ACHN renal = system: ACHN renal
SF-268 CNS = system: SF-268 CNS
SK-MEL-2 melanoma = system: SK-MEL-2 melanoma
EKVX NSCLC = system: EKVX NSCLC
LXFL 529 NSCLC = system: LXFL 529 NSCLC
HCT-116 colon = system: HCT-116 colon
MOLT-4 leukemia = system: MOLT-4 leukemia
KM20L2 colon = system: KM20L2 colon
M19-MEL melanoma = system: M19-MEL melanoma
OVCAR-8 ovarian = system: OVCAR-8 ovarian
MALME-3M melanoma = system: MALME-3M melanoma
CCRF-CEM leukemia = system: CCRF-CEM leukemia
SN12C renal = system: SN12C renal
NCI-H23 lung = system: NCI-H23 lung
SNB-75 CNS = system: SNB-75 CNS
HT29 colon = system: HT29 colon
SK-OV-3 ovarian = system: SK-OV-3 ovarian
M14 melanoma = system: M14 melanoma
DMS 114 small cell lung = system: DMS 114 small cell lung
DLD-1 colon = system: DLD-1 colon

What does the source list for `COc1ccc2c(c1)[n+](=O)c(C(=O)CC(=O)C(=O)Nc1cccc(Cl)c1C)c(C)n2[O-]`?
TGI (COLO 205 colon): > 100 µM; TGI (CAKI-1 renal): > 100 µM; TGI (OVCAR-5 ovarian): > 100 µM; TGI (RPMI-8226 leukemia): > 100 µM; TGI (UACC-257 melanoma): > 100 µM; TGI (K-562 leukemia): > 100 µM; TGI (A498 renal): > 100 µM; TGI (HCT-15 colon): > 100 µM; TGI (SF-539 CNS): > 100 µM; TGI (U251 CNS): > 100 µM; TGI (RXF 393 renal): > 100 µM; TGI (HOP-62 NSCLC): > 100 µM; TGI (SR leukemia): > 100 µM; TGI (NCI-H226 lung): > 100 µM; TGI (SNB-78 CNS): > 100 µM; TGI (SNB-19 CNS): > 100 µM; TGI (HCC-2998 colon): > 100 µM; TGI (TK-10 renal): > 100 µM; TGI (SK-MEL-5 melanoma): > 100 µM; TGI (LOX IMVI melanoma): > 100 µM; TGI (SF-295 CNS): > 100 µM; TGI (UACC-62 melanoma): > 100 µM; TGI (SK-MEL-28 melanoma): > 100 µM; TGI (HOP-18 NSCLC): > 100 µM; TGI (OVCAR-3 ovarian): 94.7 µM; TGI (KM12 colon): > 100 µM; TGI (DMS 273 small cell lung): > 100 µM; TGI (OVCAR-4 ovarian): > 100 µM; TGI (A549 NSCLC): > 100 µM; TGI (IGROV1 ovarian): > 100 µM; TGI (SW-620 colon): > 100 µM; TGI (NCI-H522 lung): 58 µM; TGI (HOP-92 NSCLC): > 100 µM; TGI (HL-60(TB) leukemia): > 100 µM; TGI (786-0 renal): > 100 µM; TGI (UO-31 renal): > 100 µM; TGI (NCI-H460 lung): > 100 µM; TGI (ACHN renal): > 100 µM; TGI (SF-268 CNS): > 100 µM; TGI (SK-MEL-2 melanoma): > 100 µM; TGI (EKVX NSCLC): > 100 µM; TGI (LXFL 529 NSCLC): > 100 µM; TGI (HCT-116 colon): > 100 µM; TGI (MOLT-4 leukemia): > 100 µM; TGI (KM20L2 colon): > 100 µM; TGI (M19-MEL melanoma): > 100 µM; TGI (OVCAR-8 ovarian): > 100 µM; TGI (MALME-3M melanoma): > 100 µM; TGI (CCRF-CEM leukemia): 71.2 µM; TGI (SN12C renal): > 100 µM; TGI (NCI-H23 lung): > 100 µM; TGI (SNB-75 CNS): > 100 µM; TGI (HT29 colon): > 100 µM; TGI (SK-OV-3 ovarian): > 100 µM; TGI (M14 melanoma): > 100 µM

Which TGI (COLO 205 colon) does the source give for `CCOC(=O)N1CCN(P(=O)(Nc2ccc3nc(NC(=O)OC)[nH]c3c2)Oc2ccccc2)CC1` (stereo not given) here?
The TGI was greater than 100 µM.

What about the TGI (CAKI-1 renal) of the same molecule?
The TGI was greater than 100 µM.

And the TGI (OVCAR-5 ovarian)?
Its TGI is greater than 100 µM.

What about the TGI (RPMI-8226 leukemia) of the same molecule?
The TGI was greater than 100 µM.

And the TGI (UACC-257 melanoma)?
Its TGI is greater than 100 µM.

What about the TGI (K-562 leukemia) of the same molecule?
Its TGI is greater than 100 µM.

And the TGI (A498 renal)?
Its TGI is greater than 100 µM.

And the TGI (HCT-15 colon)?
The TGI was greater than 100 µM.

What about the TGI (U251 CNS) of the same molecule?
Its TGI is greater than 100 µM.

And the TGI (RXF 393 renal)?
Its TGI is greater than 100 µM.

What about the TGI (NCI-H226 lung) of the same molecule?
The TGI was greater than 100 µM.

What about the TGI (SNB-78 CNS) of the same molecule?
The TGI was greater than 100 µM.

What about the TGI (HCC-2998 colon) of the same molecule?
The TGI was greater than 100 µM.

And the TGI (TK-10 renal)?
Its TGI is greater than 100 µM.

And the TGI (LOX IMVI melanoma)?
The TGI was greater than 100 µM.

What about the TGI (UACC-62 melanoma) of the same molecule?
The TGI was greater than 100 µM.

And the TGI (SK-MEL-28 melanoma)?
Its TGI is greater than 100 µM.

What about the TGI (HOP-18 NSCLC) of the same molecule?
The TGI was greater than 100 µM.

And the TGI (OVCAR-3 ovarian)?
Its TGI is greater than 100 µM.

And the TGI (KM12 colon)?
Its TGI is greater than 100 µM.

And the TGI (DMS 273 small cell lung)?
Its TGI is greater than 100 µM.

What about the TGI (OVCAR-4 ovarian) of the same molecule?
The TGI was greater than 100 µM.

And the TGI (A549 NSCLC)?
Its TGI is greater than 100 µM.

And the TGI (IGROV1 ovarian)?
Its TGI is greater than 100 µM.

And the TGI (DMS 114 small cell lung)?
Its TGI is greater than 100 µM.

What about the TGI (SW-620 colon) of the same molecule?
Its TGI is greater than 100 µM.

And the TGI (NCI-H522 lung)?
The TGI was greater than 100 µM.

And the TGI (HOP-92 NSCLC)?
Its TGI is greater than 100 µM.

And the TGI (HL-60(TB) leukemia)?
The TGI was greater than 100 µM.

And the TGI (786-0 renal)?
Its TGI is greater than 100 µM.

And the TGI (UO-31 renal)?
The TGI was greater than 100 µM.

What about the TGI (NCI-H460 lung) of the same molecule?
Its TGI is greater than 100 µM.

And the TGI (ACHN renal)?
Its TGI is greater than 100 µM.

What about the TGI (SF-268 CNS) of the same molecule?
The TGI was greater than 100 µM.

And the TGI (SK-MEL-2 melanoma)?
The TGI was greater than 100 µM.

What about the TGI (LXFL 529 NSCLC) of the same molecule?
The TGI was greater than 100 µM.

And the TGI (HCT-116 colon)?
Its TGI is greater than 100 µM.

What about the TGI (MOLT-4 leukemia) of the same molecule?
Its TGI is greater than 100 µM.

What about the TGI (KM20L2 colon) of the same molecule?
Its TGI is greater than 100 µM.

And the TGI (M19-MEL melanoma)?
Its TGI is greater than 100 µM.

What about the TGI (DLD-1 colon) of the same molecule?
The TGI was greater than 100 µM.

And the TGI (OVCAR-8 ovarian)?
Its TGI is greater than 100 µM.

And the TGI (MALME-3M melanoma)?
The TGI was greater than 100 µM.

And the TGI (CCRF-CEM leukemia)?
The TGI was greater than 100 µM.

What about the TGI (SN12C renal) of the same molecule?
Its TGI is greater than 100 µM.

And the TGI (NCI-H23 lung)?
Its TGI is greater than 100 µM.

What about the TGI (SNB-75 CNS) of the same molecule?
Its TGI is greater than 100 µM.

And the TGI (HT29 colon)?
Its TGI is greater than 100 µM.

And the TGI (SK-OV-3 ovarian)?
Its TGI is greater than 100 µM.

And the TGI (M14 melanoma)?
Its TGI is greater than 100 µM.

Source: PubChem BioAssay (NCI)
